Results as given in ChEMBL document CHEMBL1759870, “Identification, structural properties and chelating capacity of miltipolone as a broad-spectrum inhibitor to cancer cells” (Eur J Med Chem, 2011).

Columns and labels:
[1] = system: HUVEC; experiment: Antiproliferative activity against human HUVEC cells after 96 hrs by MTT assay; type: cell-based
[2] = system: HepG2; experiment: Antiproliferative activity against human HepG2 cells after 96 hrs by MTT assay; type: functional, cell-based; details: HepG2, 96 h
[3] = system: Jurkat; experiment: Antiproliferative activity against human Jurkat cells after 96 hrs by MTT assay; type: functional, cell-based
[4] = system: NCI-N87; experiment: Antiproliferative activity against human NCI-N87 cells after 96 hrs by MTT assay; type: functional, cell-based; details: NCI-N87, 96 h
[5] = system: HT-1080; experiment: Antiproliferative activity against human HT1080 cells after 96 hrs by MTT assay; type: functional, cell-based; details: HT-1080, 96 h

Row | SMILES | IC50 [1] [nM] | IC50 [2] [nM] | IC50 [3] [nM] | IC50 [4] [nM] | IC50 [5] [nM]
1 | COc1cccc2c1C(=O)c1c(O)c3c(c(O)c1C2=O)C[C@@](O)(C(=O)CO)C[C@@H]3O[C@H]1C[C@H](N)[C@H](O)[C@H](C)O1 [DOXORUBICIN] | 30.3 | 19 | 37.5 | 420 | 
2 | COc1cc([C@@H]2c3cc4c(cc3[C@@H](O[C@@H]3O[C@@H]5CO[C@@H](C)O[C@H]5[C@H](O)[C@H]3O)[C@H]3COC(=O)[C@H]23)OCO4)cc(OC)c1O [ETOPOSIDE] |  |  |  |  | 750
